Assay results reported in PMC7479006, “Effect of high-fat diet on the pharmacokinetics and safety of flumatinib in healthy Chinese subjects” (Cancer Chemotherapy and Pharmacology, 2020).

Columns and labels:
[1] = human, in vivo
Procedure: The subjects were randomized 24 h in advance in one of the two following groups. Group A: at least 10 h after fasting, oral flumatinib administration of 400 mg (2 tablets, day 1, first dose); the washout period was 14 days, half an hour after high-fat diet (timed from the start of diet) oral flumatinib administration of 400 mg (2 tablets, day 15,second dose). Subjects in group B followed the opposite administration sequence from those in group A. In groups A and B, the high-fat diet contained 800 ~ 1000Kcal (about 50% from fat) (meal composition is detailed Table 1).
Blood samples for pharmacokinetic (PK) evaluation were collected at 0 h before the initiation of dosing (pre-dose), and at 0.5, 1, 1.5, 2, 2.5, 3, 4, 5, 6, 8, 10, 12, 24, 48, 72, and 96 h after dosing. Blood samples were centrifuged at 2000g for 10 min at 4 ℃. Centrifugation was completed within 60 min after sample collection. The plasma was stored at − 70 °C for further analysis. Plasma concentrations of flumatinib and its main metabolites (M1 and M3) were determined using liquid chromatography-mass spectrometry (LC–MS/MS) [20].
Phoenix WinNonlin Version 7.0 (Pharsight Corporation, Sunnyvale, CA, USA) software was used to calculate the pharmacokinetic parameters (Tmax, Cmax, AUC0–t, AUC0–∞, t1/2, V/F, CL/F) of flumatinib and its main metabolites using a non-compartmental method (NCA module). Linear Up Log Down trapezoidal method was used for AUC calculation. The BE module of WinNonLin was used to analyze AUC0–t, AUC0–∞, and Cmax of flumatinib in fed and fasting states after logarithmic conversion. The treatment group (fasting, high-fat diet), the treatment sequence (A, B), and treatment phase were fixed effects in the model, and the subjects nested in the sequence were random effects. The adjusted mean difference (fasting/high-fat diet) and its 90% confidence interval estimated by the model, were taken as the negative number to obtain the corresponding PK parameter geometric mean ratio (postprandial/fasting), to estimate its 90% confidence interval, and to evaluate the effect of a high-fat diet on the pharmacokinetics of flumatinib.

[2] = in vivo; cited from earlier work
[3] = set-up: method as in PMID 26096139; conditions: healthy subjects; cited from earlier work
[4] = set-up: method as in PMID 18024884; conditions: cited from earlier work
[5] = set-up: method as in PMID 25511575; conditions: healthy subjects; cited from earlier work

SMILES: Cc1ncc(NC(=O)c2ccc(CN3CCNCC3)c(C(F)(F)F)c2)cc1Nc1nccc(-c2cccnc2)n1 [M1, N-desmethyl flumatinib]
- AUC0–t [1]: 231 ± 101 ng·h/mL
- Cmax [1]: 54.7 ± 25.5 ng/mL
- Increase of AUC0–t after high-fat diet over fasted state ([1]; po, 400 mg): 1.6 fold
- Increase of AUC0–∞ after high-fat diet over fasted state ([1]; po, 400 mg): 1.6 fold
- Increase of Cmax after high-fat diet over fasted state ([1]; po, 400 mg): 1.9 fold
- Metabolite in plasma relative to the parent drug in plasma [2]: approximately 10%

SMILES: N#Cc1ccnc(N2C(=O)CC[C@H]2C(=O)N(c2cncc(F)c2)[C@H](C(=O)NC2CC(F)(F)C2)c2ccccc2Cl)c1 [ivosidenib]
- Increase in Cmax after a high-fat diet compared to fasting [3]: 98%

SMILES: CS(=O)(=O)CCNCc1ccc(-c2ccc3ncnc(Nc4ccc(OCc5cccc(F)c5)c(Cl)c4)c3c2)o1 [lapatinib]
- Increase in bioavailability after high-fat diet [4]: 325%
- Increase in bioavailability after low-fat diet [4]: 167%

SMILES: Cc1cn(-c2cc(NC(=O)c3ccc(C)c(Nc4nccc(-c5cccnc5)n4)c3)cc(C(F)(F)F)c2)cn1 [nilotinib]
- AUC higher when taken with food than fasting [5]: 82%
- Cmax higher when taken with food than fasting [5]: 112%
